Entries after “also recorded” stand apart in the source; their conditions may differ.
Assays:
Shal_3128/9 [1] = assay: Ligand competition assay, sensor response to thiosulfate in presence of other TEAs; assay type: cell-based, Shewanella halifaxensis; conditions: 5 mM thiosulfate plus 10 mM other TEA; FIG. 3E
Experimental: FIG. 3A-F. Characterization of the thiosulfate-sensing proteins: Shal_3128/9. (3A) The S. halifaxensis genomic region containing the thiosulfate reductase operon (Shal_3125-7) and neighboring thiosulfate-sensing TCS (Shal_3128/9). (3B) Plasmid design of the inducible thiosulfate sensor. […] (3D) Selectivity of Shal_3128/9 to thiosulfate over other terminal electron acceptors. All TEAs were tested at 10 mM concentration. (3E) Ligand competition assay. Sensor performance at 5 mM thiosulfate was tested in the presence of 10 mM other TEAs, and a decrease in response indicates inhibition by the added ligand. (3F) Inhibition curve of tetrathionate (filled circles) and sulfite (open squares) in the presence of 5 mM thiosulfate.

Shal_3128/9 [2] = conditions: TEAs tested at 10 mM; E. coli BW28357 expressing Shal_3128/9; FIG. 3D
Source text: The sensor kinase was expressed from a p15A medium-copy expression vector with spectinomycin resistance. Production of Shal_3128 was driven by the Ptac promoter and a designed synthetic RBS (predicted strength 1,000), which was induced by IPTG and regulated by constitutively expressed LacI. Transcription of Shal_3128, LacI, and Spec^R was terminated by the B0015, T1, and T0 terminators, respectively.
The response regulator and rewired output promoter driving GFP production were on a ColE1 high-copy expression vector with chloramphenicol resistance. Shal_3129 production was regulated by constitutively expressed TetR at the PLTetO-1 aTc-inducible promoter with a synthetic RBS (predicted strength 1,000). […] Production of sfGFP was regulated by output of the PShal_3127 promoter using the B0034 RBS, which provides a visual readout of Shal_3128/9 activity. Transcription of Shal_3129, sfGFP, TetR, and Cm^R was terminated by the B0015, B0015, T1, and T0 terminators, respectively.
Both plasmids were transformed into the BW28357 E. coli strain, available from The Coli Genetic Stock Center (CGSC#: 7991, F−, Δ(araD-araB)567, ΔlacZ4787(TrnB-3); lambda^−, Δ(rhaD-rhaB)568, hsdR514).

thiosulfate sensor = assay: Effect of DSS on GFP output of optimized thiosulfate sensor; assay type: cell-based, Shewanella halifaxensis; conditions: 3% DSS; optimized constitutive sensor in E. coli Nissle; FIG. 4D
Source text: FIG. 4A-D. Sensor optimization for thiosulfate detection in the gut. (4A) Changes made between the initial characterization constructs and in vivo optimized sensor. (4B) Layout of sensor components on the final two plasmid expression system. (4C) Normalized dose-response behavior of thiosulfate sensors. Shown is the original, inducible, BW28357 strain grown aerobically (closed circles), and the selected constitutive promoter strain in Nissle grown aerobically (closed squares) and anaerobically (open squares). A shift in half-maximal response indicates sensitivity to oxygen. (4D) Dynamic range of optimized thiosulfate sensors. GFP output is shown in the absence (grey bars) and presence of 5 mM thiosulfate or 1 mM tetrathionate, respectively (black bars).

Chain of thiosulfate sensor (as listed by the source): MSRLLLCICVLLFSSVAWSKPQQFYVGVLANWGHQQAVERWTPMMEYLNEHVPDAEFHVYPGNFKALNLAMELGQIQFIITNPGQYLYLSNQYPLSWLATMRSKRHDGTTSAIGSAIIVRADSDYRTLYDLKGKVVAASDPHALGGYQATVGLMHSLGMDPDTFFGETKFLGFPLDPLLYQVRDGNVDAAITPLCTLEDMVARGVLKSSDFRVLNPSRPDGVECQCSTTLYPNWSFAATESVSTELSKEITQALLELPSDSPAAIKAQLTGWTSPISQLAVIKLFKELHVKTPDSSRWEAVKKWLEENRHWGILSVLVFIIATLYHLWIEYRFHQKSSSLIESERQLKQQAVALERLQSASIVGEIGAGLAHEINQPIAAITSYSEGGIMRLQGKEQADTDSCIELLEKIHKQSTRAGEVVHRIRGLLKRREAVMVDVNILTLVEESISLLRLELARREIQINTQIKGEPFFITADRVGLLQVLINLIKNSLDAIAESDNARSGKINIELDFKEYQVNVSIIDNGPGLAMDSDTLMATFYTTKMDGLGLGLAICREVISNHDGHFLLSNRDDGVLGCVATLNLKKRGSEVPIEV
Chain of thiosulfate sensor (as listed by the source partner): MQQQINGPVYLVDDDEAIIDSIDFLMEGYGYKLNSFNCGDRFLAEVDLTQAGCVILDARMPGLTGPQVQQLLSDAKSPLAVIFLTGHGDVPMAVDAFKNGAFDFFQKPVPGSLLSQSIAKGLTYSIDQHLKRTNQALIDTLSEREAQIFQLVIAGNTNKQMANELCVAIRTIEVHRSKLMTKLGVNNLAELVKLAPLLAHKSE

## O=S(O)O [sulfite]
Shal_3128/9 [1]
  competition (inhibition of thiosulfate response): modest level of competition

## O=S(=O)(O)SSS(=O)(=O)O [tetrathionate]
Shal_3128/9 [1]
  competition (inhibition of thiosulfate response): modest level of competition

## O=S(O)(O)=S [thiosulfate]
Shal_3128/9 [2]
  stimulation of production of reporter protein GFP: effectively stimulated production of reporter protein GFP

## Dextran Sodium Sulfate [DSS]
Thiosulfate sensor
  activation or inhibition of sensor signaling: does not activate or inhibit signaling; also recorded: does not appear to be sensitive
